Reference: patent US20250382344A1, “Soluble GLP1/GIP/NPY2 Receptor Triple Agonists” (Boehringer Ingelheim International GmH, priority 2024, published 2025)
Read-outs that look alike come from different tables or passages of the source. *1 amine or outer side, *2 acyl side, *3 side chain or, on linkers, in order; H or OH if unused. Where no end group is shown, it is not given here. Side-chain parts run from the residue outwards. [ ]: non-standard residue; d: D form. The star is where a group is joined. C20 diacid = O=C(O)CCCCCCCCCCCCCCCCCCC(=O)*; C18 diacid = O=C(O)CCCCCCCCCCCCCCCCC(=O)*; γGlu = O=C(O)[C@H](CCC(=O)[*:2])N[*:1]; εLys = N[C@@H](CCCCN[*:1])C(=O)[*:2]; TRX = not defined here; Aib = CC(C)(N)C(=O)O

T1: hGIPR (Homo sapiens, UniProt P48546)
T1 construct: expressed in transfected cells; host or cells: CHO CRE-luciferase reporter cells
T1 sequence (P48546 22-466): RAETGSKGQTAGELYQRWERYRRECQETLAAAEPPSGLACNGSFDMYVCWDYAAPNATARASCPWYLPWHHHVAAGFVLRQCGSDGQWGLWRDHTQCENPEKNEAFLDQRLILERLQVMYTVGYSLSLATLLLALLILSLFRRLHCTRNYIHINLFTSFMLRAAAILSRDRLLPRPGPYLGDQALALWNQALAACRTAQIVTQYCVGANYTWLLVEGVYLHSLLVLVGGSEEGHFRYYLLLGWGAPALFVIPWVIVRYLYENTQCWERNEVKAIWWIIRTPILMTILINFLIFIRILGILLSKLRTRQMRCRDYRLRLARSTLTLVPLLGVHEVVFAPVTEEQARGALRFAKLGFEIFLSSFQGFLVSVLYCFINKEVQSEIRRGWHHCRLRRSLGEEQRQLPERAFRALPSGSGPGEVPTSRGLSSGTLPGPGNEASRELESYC

T2: human GIP receptor (human, UniProt P48546 22-466)
T2 sequence (looked up): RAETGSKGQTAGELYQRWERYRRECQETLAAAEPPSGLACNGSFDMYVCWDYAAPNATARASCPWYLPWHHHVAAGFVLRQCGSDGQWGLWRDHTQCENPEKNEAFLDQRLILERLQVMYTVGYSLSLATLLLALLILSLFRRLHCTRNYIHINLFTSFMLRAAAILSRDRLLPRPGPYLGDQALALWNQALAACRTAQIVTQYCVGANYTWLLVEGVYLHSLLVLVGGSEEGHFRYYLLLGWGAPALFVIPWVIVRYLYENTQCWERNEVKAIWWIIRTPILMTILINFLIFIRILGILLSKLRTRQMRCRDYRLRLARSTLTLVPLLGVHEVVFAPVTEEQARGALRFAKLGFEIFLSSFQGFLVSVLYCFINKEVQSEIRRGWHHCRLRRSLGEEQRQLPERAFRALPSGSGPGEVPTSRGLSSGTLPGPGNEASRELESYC

T3: human neuropeptide Y2 receptor (human, UniProt P49146 1-381)
T3 sequence (looked up): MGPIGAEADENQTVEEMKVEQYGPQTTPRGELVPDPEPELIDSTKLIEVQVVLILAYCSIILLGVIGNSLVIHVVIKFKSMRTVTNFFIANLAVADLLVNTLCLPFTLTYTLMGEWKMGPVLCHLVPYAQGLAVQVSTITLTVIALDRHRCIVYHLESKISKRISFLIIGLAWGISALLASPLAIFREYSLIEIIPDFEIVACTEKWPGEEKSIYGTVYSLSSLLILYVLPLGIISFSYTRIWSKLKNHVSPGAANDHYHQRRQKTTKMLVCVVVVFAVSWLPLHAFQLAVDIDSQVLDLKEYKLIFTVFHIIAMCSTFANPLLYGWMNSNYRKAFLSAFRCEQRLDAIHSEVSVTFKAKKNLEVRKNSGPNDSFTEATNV


Key:
[1] = target: T4, hGLP1R (Homo sapiens, UniProt P43220); assay: hGLP1R CreLuc assay in 0.5% and 100% plasma (HEK-293 CRE-luciferase reporter cells); type: cell-based; settings: HEK-293 reporter cells
T4 construct: expressed in transfected cells; host or cells: HEK-293 CRE-luciferase reporter cells
T4 sequence (P43220 24-463): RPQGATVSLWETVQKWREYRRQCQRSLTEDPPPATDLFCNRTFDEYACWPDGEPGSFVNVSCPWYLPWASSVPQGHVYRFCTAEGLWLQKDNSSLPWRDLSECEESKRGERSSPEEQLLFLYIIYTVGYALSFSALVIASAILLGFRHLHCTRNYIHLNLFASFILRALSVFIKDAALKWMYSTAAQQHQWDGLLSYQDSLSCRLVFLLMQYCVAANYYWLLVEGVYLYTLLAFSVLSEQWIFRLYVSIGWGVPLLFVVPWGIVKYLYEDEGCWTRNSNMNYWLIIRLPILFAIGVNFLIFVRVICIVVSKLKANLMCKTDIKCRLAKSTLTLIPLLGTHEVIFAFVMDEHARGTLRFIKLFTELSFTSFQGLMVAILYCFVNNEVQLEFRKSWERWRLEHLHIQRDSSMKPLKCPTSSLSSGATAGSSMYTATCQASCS

[2] = Solubility in 0.1 M phosphate buffer at pH 7; type: physicochemical; settings: 0.1 M phosphate buffer at pH 7, 10 mg/mL final peptide concentration, shaking 2 hours at room temperature, peptides as TFA-salts; measured sample pH 6.5-7.0
[3] = target: T1, hGIPR; assay: hGIPR CreLuc assay in 0.5% and 100% plasma (CHO CRE-luciferase reporter cells); type: cell-based
[4] = target: T2, human GIP receptor; assay: cell-based or functional assay
[5] = target: T3, human neuropeptide Y2 receptor; assay: cell-based or functional assay
[6] = 0.5% human plasma, read-out: hGLP1R 0.5% hP
[7] = 0.5% human plasma, read-out: hGIPR 0.5% hP

Molecule	EC50 [1, 6]	solubility at 2 h [2]	EC50 [3, 7]	EC50, CreLuc reporter, 0.5% hP [4]	other results
CC[C@H](C)[C@H](NC(=O)[C@H](CC(C)C)NC(=O)[C@H](Cc1c[nH]cn1)NC(=O)[C@H](CCCNC(=N)N)NC(=O)[C@@H](NC(=O)[C@H](Cc1ccccc1)NC(=O)[C@H](C)NC(=O)C(C)(C)NC(=O)[C@H](CCC(N)=O)NC(=O)[C@H](C)NC(=O)[C@H](CCC(N)=O)NC(=O)[C@H](CCCCN)NC(=O)[C@H](CCC(=O)O)NC(=O)[C@H](CC(C)C)NC(=O)C(C)(C)NC(=O)[C@@H](NC(=O)[C@H](CO)NC(=O)[C@H](Cc1ccc(O)cc1)NC(=O)[C@H](CC(=O)O)NC(=O)[C@H](CO)NC(=O)[C@@H](NC(=O)[C@H](Cc1ccccc1)NC(=O)[C@@H](NC(=O)CNC(=O)[C@H](CCC(=O)O)NC(=O)C(C)(C)NC(=O)[C@@H](N)Cc1ccc(O)cc1)[C@@H](C)O)[C@@H](C)O)[C@@H](C)CC)C(C)C)C(=O)N[C@@H](CC(N)=O)C(=O)N[C@@H](CCCCNC(=O)CC[C@H](NC(=O)CC[C@H](NC(=O)CC[C@H](NC(=O)CC[C@H](NC(=O)CC[C@H](NC(=O)CC[C@H](NC(=O)CCCCCCCCCCCCCCCCC(=O)O)C(=O)O)C(=O)O)C(=O)O)C(=O)O)C(=O)O)C(=O)O)C(=O)NC(C)(C)C(=O)N[C@H](C(=O)N[C@@H](CCCNC(=N)N)C(=O)N(C)[C@@H](CCC(N)=O)C(=O)N[C@@H](CCCNC(=N)N)C(=O)N[C@@H](Cc1ccc(O)cc1)C(N)=O)[C@@H](C)O [Compound 2, Y-Aib-E-G-T-F-T-S-D-Y-S-I-Aib-L-E-K-Q-A-Q-Aib-A-F-V-R-H-L-I-N-K(1,3)-Aib-T-R-NMeQ-R-Y-NH2.C18DA-gGlu-gGlu-gGlu-gGlu-gGlu-gGlu(1,2)]	800 pM	5000 µg/mL	400 pM		
Y[Aib]EGTFTSDYSI[Aib]LEKQAQ[Aib]AFVRHLINK([γGlu-γGlu-γGlu-γGlu-γGlu-γGlu-TRX-C18 diacid])[Aib]TRQRY-NH2 (reading uncertain) [Compound 31]					EC50, CreLuc reporter, 100% hP [4]: 14900 pM; EC50, CreLuc reporter, 0.5% hP [5]: 76400 pM; EC50, CreLuc reporter, 100% hP [5]: 131000 pM
Y[Aib]EGTFTSDYSI[Aib]LEKQAQ[Aib]AFVRHLINK([εLys-γGlu-γGlu-γGlu-γGlu-γGlu-γGlu-γGlu-C18 diacid])ITRQRY-NH2 [Compound 18]				200 pM	
Y[Aib]EGTFTSDYSI[Aib]LEKQAQ[Aib]AFVRHLINK([εLys-γGlu-γGlu-γGlu-γGlu-γGlu-γGlu-γGlu-C20 diacid])[Aib]TRQRY-NH2 [Compound 35]				700 pM	EC50, CreLuc reporter, 0.5% hP [5]: 22900 pM
Y[Aib]EGTFTSDYSI[Aib]LEKQAQ[Aib]AFVRHLINK([εLys-εLys-γGlu-γGlu-γGlu-γGlu-γGlu-γGlu-C18 diacid])[Aib]TRQRY-NH2 [Compound 11]					EC50, CreLuc reporter, 100% hP [4]: 8000 pM

Continued, in another order:

EC50 [1, 6]	solubility at 2 h [2]	EC50 [3, 7]	EC50, CreLuc reporter, 0.5% hP [4]	Molecule	other results
500 pM	5000 µg/mL	300 pM		CC[C@H](C)[C@H](NC(=O)[C@H](CC(C)C)NC(=O)[C@H](Cc1c[nH]cn1)NC(=O)[C@H](CCCNC(=N)N)NC(=O)[C@@H](NC(=O)[C@H](Cc1ccccc1)NC(=O)[C@H](CCC(=O)O)NC(=O)C(C)(C)NC(=O)[C@H](CCC(N)=O)NC(=O)[C@H](C)NC(=O)[C@H](CCC(N)=O)NC(=O)[C@H](CCCCN)NC(=O)[C@H](CCC(=O)O)NC(=O)[C@H](CC(C)C)NC(=O)C(C)(C)NC(=O)[C@@H](NC(=O)[C@H](CO)NC(=O)[C@H](Cc1ccc(O)cc1)NC(=O)[C@H](CC(=O)O)NC(=O)[C@H](CO)NC(=O)[C@@H](NC(=O)[C@H](Cc1ccccc1)NC(=O)[C@@H](NC(=O)CNC(=O)[C@H](CCC(=O)O)NC(=O)C(C)(C)NC(=O)[C@@H](N)Cc1ccc(O)cc1)[C@@H](C)O)[C@@H](C)O)[C@@H](C)CC)C(C)C)C(=O)N[C@@H](CC(N)=O)C(=O)N[C@@H](CCCCNC(=O)[C@@H](N)CCCCNC(=O)CC[C@H](NC(=O)CC[C@H](NC(=O)CC[C@H](NC(=O)CC[C@H](NC(=O)CC[C@H](NC(=O)CC[C@H](NC(=O)CCCCCCCCCCCCCCCCC(=O)O)C(=O)O)C(=O)O)C(=O)O)C(=O)O)C(=O)O)C(=O)O)C(=O)NC(C)(C)C(=O)N[C@H](C(=O)N[C@@H](CCCNC(=N)N)C(=O)N[C@@H](CCC(N)=O)C(=O)N[C@@H](CCCNC(=N)N)C(=O)N[C@@H](Cc1ccc(O)cc1)C(N)=O)[C@@H](C)O [Compound 145, Y-Aib-E-G-T-F-T-S-D-Y-S-I-Aib-L-E-K-Q-A-Q-Aib-E-F-V-R-H-L-I-N-K(1,3)-Aib-T-R-Q-R-Y-NH2.C18DA-gGlu-gGlu-gGlu-gGlu-gGlu-gGlu-eLys(1,2)]	EC50 ([1]; 100% human plasma, read-out: hGLP1R 100% hP): 1800 pM
600 pM	3200 µg/mL	500 pM		CC[C@H](C)[C@H](NC(=O)[C@H](CC(C)C)NC(=O)[C@H](Cc1c[nH]cn1)NC(=O)[C@H](CCCNC(=N)N)NC(=O)[C@@H](NC(=O)[C@H](Cc1ccccc1)NC(=O)[C@H](C)NC(=O)C(C)(C)NC(=O)[C@H](CCC(N)=O)NC(=O)[C@H](C)NC(=O)[C@H](CCC(N)=O)NC(=O)[C@H](CCCCN)NC(=O)[C@H](CCC(=O)O)NC(=O)[C@H](CC(C)C)NC(=O)C(C)(C)NC(=O)[C@@H](NC(=O)[C@H](CO)NC(=O)[C@H](Cc1ccc(O)cc1)NC(=O)[C@H](CC(=O)O)NC(=O)[C@H](CO)NC(=O)[C@@H](NC(=O)[C@H](Cc1ccccc1)NC(=O)[C@@H](NC(=O)CNC(=O)[C@H](CCC(=O)O)NC(=O)C(C)(C)NC(=O)[C@@H](N)Cc1ccc(O)cc1)[C@@H](C)O)[C@@H](C)O)[C@@H](C)CC)C(C)C)C(=O)N[C@@H](CC(N)=O)C(=O)N[C@@H](CCCCNC(=O)CC[C@H](NC(=O)CC[C@H](NC(=O)CC[C@H](NC(=O)CC[C@H](NC(=O)CC[C@H](NC(=O)CCCCCCCCCCCCCCCCC(=O)O)C(=O)O)C(=O)O)C(=O)O)C(=O)O)C(=O)O)C(=O)N[C@@H](CC(C)C)C(=O)N[C@H](C(=O)N[C@@H](CCCNC(=N)N)C(=O)N[C@@H](CCC(N)=O)C(=O)N[C@@H](CCCNC(=N)N)C(=O)N[C@@H](Cc1ccc(O)cc1)C(N)=O)[C@@H](C)O [Compound 158, Y-Aib-E-G-T-F-T-S-D-Y-S-I-Aib-L-E-K-Q-A-Q-Aib-A-F-V-R-H-L-I-N-K(1,3)-L-T-R-Q-R-Y-NH2.C18DA-gGlu-gGlu-gGlu-gGlu-gGlu(1,2)]	EC50 ([3]; 100% human plasma, read-out: hGIPR 100% hP): 14400 pM
			300 pM	Y[Aib]EGTFTSDYSILLEKQAQ[Aib]AFVRHLINK([γGlu-γGlu-γGlu-γGlu-γGlu-γGlu-C20 diacid])[Aib]TRQRY-NH2 [Compound 57]	
